Data reported in patent US7001983B1, “Antipathogenic synthetic peptides and compositions comprising them” (priority 1997, dated 2006).

What was measured:
[1] = test system: Escherichia coli D21; format: cell-based; conditions: 100% inhibition of growth after 18–20 h
[2] = test system: Acinetobacter calcoaceticus Ac11; format: cell-based; conditions: 100% inhibition of growth after 18–20 h
[3] = test system: Bacillus megaterium Bm11; format: cell-based; conditions: 100% inhibition of growth after 18–20 h
[4] = test system: Micrococcus Iuteus ATCC 9341; test: Antibacterial activity (MIC), growth inhibition in LB medium; format: cell-based, Micrococcus luteus; conditions: 100% inhibition of growth after 18–20 h
Procedure: (viii) Antibacterial activity of the peptides. The antibacterial activity of the diastereomers was examined in sterile 96-well plates (Nunc F96 microtiter plates) in a final volume of 100 μL as follows: Aliquots (50 μl) of a suspension containing bacteria at a concentration of 10^6 Colony-Forming Units (CFU)/ml LB (Lauria broth) medium were added to 50 μL of water or 66% pooled normal human serum in PBS, containing the peptide in 2-fold serial dilutions. Growth inhibition was determined by measuring the absorbance at 492 nm with a Microplate autoreader E1309 (Bio-tek Instruments), following incubation for 18–20 h at 37° C. […] The bacteria used were: Escherichia coli D21, Pseudomonas aeruginosa ATCC 27853, Acinetobacter calcoaceticus Ac11, Salmonella typhimurium LT2, Bacillus megaterium Bm11, Micrococcus Iuteus ATCC 9341, Bacillus subtilis ATCC 6051.

[5] = test system: Bacillus subtilis ATCC 6051; format: cell-based; conditions: 100% inhibition of growth after 18–20 h
[6] = test system: human red blood cells (hRBC); test: Hemolysis of human red blood cells; format: cell-based; conditions: hRBC
Method in brief: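 Washed fresh erythrocytes at 5% v/v final in PBS pH 7.3 exposed to peptide 30 min at 37° C with agitation. Hemoglobin release read as supernatant absorbance at 540 nm after centrifugation, scaled between PBS (0%) and 1% Triton (100%).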

[7] = test system: Candida albicans (IP886-65); test: Antifungal activity (MIC); format: cell-based; conditions: 100% inhibition of growth after 48 h at 30° C.
Procedure: (§1) The antifungal activity of the pardaxin-derived peptides 1 and 16 (see Example 1 above) was examined in sterile 96-well plates (Nunc F96 microtiter plates) in a final volume of 100 μL as follows: Fifty microliters of a suspension containing fungi at concentration of 1×10^6 Colony-Forming Units (CFU)/ml in culture medium (Sabouraud's glucose broth medium) was added to 50 μL of water containing the peptide in serial 2-fold dilutions in water. Inhibition of growth was determined by measuring the absorbance at 492 nm with a Microplate autoreader E1309 (Bio-tek Instruments), after an incubation time of 48 h at 30° C. […] The fungi used were: Candida albicans (IP886-65) and Cryptococcus neoformans (IP960-67).

[8] = test system: Cryptococcus neoformans (IP960-67); test: Antifungal activity (MIC); format: cell-based; conditions: 100% inhibition of growth after 48 h at 30° C.
Procedure: as §1

SMILES: CC[C@H](C)[C@H](NC(=O)[C@H](CCCCN)NC(=O)[C@H]1CCCN1C(=O)[C@@H](NC(=O)[C@H](CC(C)C)NC(=O)[C@H](C)NC(=O)[C@H](Cc1ccccc1)NC(=O)[C@H](Cc1ccccc1)NC(=O)CN)[C@@H](C)CC)C(=O)N[C@H](C(=O)N[C@@H](CO)C(=O)N[C@@H](CO)C(=O)N1CCC[C@H]1C(=O)N[C@@H](CC(C)C)C(=O)N[C@@H](Cc1ccccc1)C(=O)N[C@@H](CCCCN)C(=O)N[C@H](C(=O)N[C@H](CC(C)C)C(=O)N[C@H](CC(C)C)C(=O)N[C@@H](CO)C(=O)N[C@@H](C)C(=O)N[C@H](C(=O)NCC(=O)N[C@@H](CO)C(=O)N[C@@H](C)C(=O)N[C@@H](CC(C)C)C(=O)N[C@@H](CO)C(=O)N[C@@H](CO)C(=O)N[C@@H](CO)C(=O)NCC(=O)NCC(=O)N[C@@H](CCC(N)=O)C(=O)N[C@@H](CCC(=O)NCCN)C(=O)NCCN)C(C)C)[C@@H](C)O)[C@@H](C)CC [Peptide 1, [D]P^7L^18L^19-TApar]
- Minimal Inhibitory Concentration E. coli (D21) [1]: 6 µM
- Minimal Inhibitory Concentration A. calcoaceticus (Ac11) [2]: 6 µM
- Minimal Inhibitory Concentration B. megaterium (Bm11) [3]: 0.9 µM
- Minimal Inhibitory Concentration M. luteus (ATCC 9341) [4]: 12.5 µM
- Minimal Inhibitory Concentration B. subtilis (ATCC 6051) [5]: 3 µM
- % hemolysis at 50 μM peptide ([6]; 50 μM peptide, 30 min at 37° C.): 5%
- hemolytic activity up to the maximum concentration tested ([6]; up to 50 μM): practically devoid of hemolytic activity
- Minimal Inhibitory Concentration Candida albicans (IP886-65) [7]: 35 µM
- Minimal Inhibitory Concentration Cryptococcus neoformans (IP960-67) [8]: 50 µM
